Experimental data: patent publication US4024256A, “Method and composition for treating urinary tract infections” (priority 1975, dated 1977)
Where “and” joins values, the source holds several entries; their conditions need not be identical. Identical values can stand only once. Entries after “also recorded” stand apart in the source; their conditions may differ. Like-named read-outs stand apart in the source and are kept apart here.

Assays:
[1] = system: Proteus mirabilis; test: dynamic model of the urinary tract (FIGS. 16, 17); format: cell-based
Protocol: This example was carried out using a dynamic model as described in connection with Example 2. […] Proteus species, isolated from the urine of patients with known urinary infection, were maintained in the laboratory by monthly transfer on agar […]. These organisms grew to about 10^9 colony forming units (cfu) per ml after overnight growth at 37° C in brain heart infusion broth (BHI). […] The pH of this synthetic urine was 5.85. […] In this dynamic system urine with or without acetohydroxamic acid was pumped at 48 ml/hr from reservoirs via an auto-analyzer pump into reaction chambers which were incubated in a shaking water bath at 37° C. […] Every six hours the reaction chambers were emptied except for a 5 ml residual, and the sequence was repeated. In these experiments the pH, ammonia concentration and cfu per ml urine were determined for each reaction chamber at the end of each six hour period.

[2] = system: Proteus species; test: static study in synthetic urine: inhibition of alkalinization by Proteus species; format: cell-based; settings: for effect on alkalinization: methenamine 0.9 mg/ml
Protocol: (§1) Static studies were conducted to illustrate the synergistic effect achieved in accordance with the present invention through the combined employment of a source of methenamine, i.e., methenamine itself and a source of hydroxamate groups, i.e., acetohydroxamic acid. In order to achieve reproducibility of results with large quantities or urine required for these studies a synthetic urine was formulated based on the proportion of solutes found in the urine from normal human subjects. The composition of such urine was as follows: Brain heart infusion (BHI) broth in a final concentration of 5% was added to support bacterial growth. The pH of the synthetic urine prior to addition of the BHI broth was 5.7 - 5.8. […] In these tests the methenamine was utilized in a final concentration of 0.9 milligrams per milliliter. […] Dally and […], 1969, Analytical BioChem 28:13-21. […] These concentrations which were selected in the static studies were concentrations which would be achievable in the urine of patients with normal renal function. […] At each pH level a set of four tubes was obtained, with these tubes being as follows: 1. Urine alone (control); 2. Urine plus methenamine; 3. Urine plus acetohydroxamic acid; and 4. Urine plus acetohyroxamic acid plus methenamine. […] At varying time intervals aliquots were removed for pH determination and bacterial enumeration by serial tenfold dilution.

[3] = system: Proteus rettgeri; test: static study in synthetic urine: viable bacteria, Proteus rettgeri (FIG. 2); format: cell-based
Protocol: as §1

[4] = system: Proteus mirabilis; test: Proteus mirabilis infected bladder stones (zinc disc) in rats; format: in vivo, male Sprague-Dawley rats
Protocol: This example was carried out to illustrate the effectiveness of administering a source of hydroxamate groups, e.g., acetohydroxamic acid in eliminating the pathogenicity of urinary tract infections and in dissolving or reducing infected bladder stones.
The formation of infected bladder stones was induced in 250 gram male Sprague-Dawley rats, according to the method described in "Experimental Urolithiasis VIII -- Furadantin in Treatment of Experimental Proteus Infection with Stone Formation" C. W. Vermuelen and R. Goetz, Journal of Urology, 72:99, 1954. Rats wer anesthetized with ether and the abdominal wall swabbed with 70% ethyl alcohol. The urinary bladder was entered through a small suprapubic incision. Zinc discs, 6 mm. in diameter, were dipped into a saline suspension containing 10^7 Proteus mirabilis per ml (infective discs) and immediately inserted into the bladder. Discs handled in this fashion carried 10^5 ± 15% organisms. The bladder was closed with a single purse-string suture of 3-0 chromic catgut, and the skin was approximated with metallic clips. All animals were fasted overnight following the surgical procedure and resumed their usual diet the following day.
Rats were housed individually in stainless steel metabolic cages and were fed Purina Rat Chow pellets ad lib. Fluid was given in stainless steel cups as a solution of 5-20% sucrose in water.

[5] = system: Proteus rettgeri; test: dynamic study resembling a Proteus infected human bladder (FIG. 3); format: cell-based
Protocol: Dynamic studies were conducted to further illustrate the synergistic effect associated with the combined presence of a source of methenamine, i.e., methenamine itself and a source of hyroxamate groups, i.e., acetohydroxamic acid in the urine. […] Utilizing a multicassetts roller pump, urine of a pH of 5.85 was pumped at 40 milliliters per hour from three reservoir flasks into three reaction chambers. […] An aqueous solution of 18 milligrams per milliliter of methenamine at a pH of 7.5 was pumped into reaction chambers 1 and 3 at a rate of two milliliters per hour yielding a final concentration of methenamine of 0.9 milligrams per milliliter. […] The reaction chambers contained gently rotating magnetic stirrers and were kept in a warm bath at 37° C. […] At 4 - 6 hour intervals the volume of urine in each reaction chamber was recorded, the pH of each reaction chamber was determined and serial dilutions were carried out for bacterial enumeration.

[6] = system: bacterial urease; settings: cited from earlier work
[7] = characteristics of acetohydroxamic acid (Table 1), pKa; format: physicochemical
From the text: These aliphatic hydroxamic acids including formohydroxamic acid, acetohydroxamic acid, propionohydroxamic acid and isobutyhydroxamic acid. […] This source of hydroxamate groups has the following characteristics: […]

[8] = system: Proteus; test: static-dynamic system, bacteriostasis against Proteus, statements over all experiments; format: cell-based, Proteus mirabilis, Proteus rettgeri, Proteus morgani
Protocol: In this example in vitro investigations were carried out using a static-dynamic system delineating (1) bacteriostatic dose-response relation for methenamine against Proteus, and (2) a synergistic bacteriostatic dose-response relation for methenamine and acetohydroxamic acid against Proteus. […] The tubes were placed in a bacteriological incubator at 37° C. […] Incubation of the tubes at 37° and sequential dilutions were made a 6 hour intervals for 24 hours. The variables for each of eight experiments are detailed in Table 2. Bacterial colony forming units (cfu) and urine pH were determined at the beginning and at the completion of each six hour incubation. The cfu units present after six hours of incubation are graphed in FIGS. 4-15. […] When bacteriostatis was absent, the number of cfu after six hours of incubation was equal to or greater than the number of cfu at the beginning of incubation. A strain of Proteus mirabilis isolated from the urine of patients with urinary tract infections was used in most experiments. Overnight growth in brain heart infusion (BHI) broth regularly produced 10^9 cfu/ml. The overnight culture was centrifuged at 3000 rpm for 20 minutes. The supernatant was discharged, and the bacterial pellet was resuspended in an equal volume of synthetic urine. […]

[9] = system: Proteus species; test: static study in synthetic urine: anti-bacterial effect, all Proteus species studied; format: cell-based; settings: general statement
Protocol: as §1

[10] = system: urease producing bacteria; settings: cited from earlier work
[11] = system: Proteus; test: preliminary investigations in the dynamic system; format: cell-based; settings: methenamine 0.9 mg/ml
From the text: Utilizing a multicassetts roller pump, urine of a pH of 5.85 was pumped at 40 milliliters per hour from three reservoir flasks into three reaction chambers. […] An aqueous solution of 18 milligrams per milliliter of methenamine at a pH of 7.5 was pumped into reaction chambers 1 and 3 at a rate of two milliliters per hour yielding a final concentration of methenamine of 0.9 milligrams per milliliter. […] The reaction chambers contained gently rotating magnetic stirrers and were kept in a warm bath at 37° C.

[12] = system: Proteus mirabilis; test: static-dynamic system, bacteriostasis against Proteus mirabilis (Experiments A-J); format: cell-based
Protocol: In this example in vitro investigations were carried out using a static-dynamic system delineating (1) bacteriostatic dose-response relation for methenamine against Proteus, and (2) a synergistic bacteriostatic dose-response relation for methenamine and acetohydroxamic acid against Proteus. […] The tubes were placed in a bacteriological incubator at 37° C. […] Incubation of the tubes at 37° and sequential dilutions were made a 6 hour intervals for 24 hours. The variables for each of eight experiments are detailed in Table 2. Bacterial colony forming units (cfu) and urine pH were determined at the beginning and at the completion of each six hour incubation. The cfu units present after six hours of incubation are graphed in FIGS. 4-15. […] When bacteriostatis was absent, the number of cfu after six hours of incubation was equal to or greater than the number of cfu at the beginning of incubation. A strain of Proteus mirabilis isolated from the urine of patients with urinary tract infections was used in most experiments. Overnight growth in brain heart infusion (BHI) broth regularly produced 10^9 cfu/ml. The overnight culture was centrifuged at 3000 rpm for 20 minutes. The supernatant was discharged, and the bacterial pellet was resuspended in an equal volume of synthetic urine. The bacteria were resuspended in synthetic urine to prevent differences in pH as the bacteria were inoculated into tubes of synthetic urine. […] The results are illustrated in FIGS. 4-15 which relates respectively to Experiment A-L of Table 2. Each of FIGS. 4-15 represents colony forming units (cfu) present at the completion of six hour incubations. 100-fold dilutions were made prior to initiating subsequent six hour incubations. Each figure also includes a line representative of theoretically perfect bacteriostasis.

[13] = cited from earlier work
[14] = individual animal, average of day individual values, listed as AHA
[15] = individual animal, listed as AHA

## CC(=O)NO [acetohydroxamic acid]
[1]; acetohydroxamic acid 1 mg/ml without methenamine
  effect on pH: maintained the pH at normal levels
[1]; acetohydroxamic acid, higher concentration 1.0 mg/ml (FIG. 16)
  bacterial growth: slightly inhibited bacterial growth
[2]; acetohydroxamic acid 1.9 mg/ml, synthetic urine, 37°
  inhibition of alkalinization: inhibited alkalinizaton for the first eight hours
[2]; acetohydroxamic acid 1.9 mg/ml, bacterial proliferation leading to alkaline pH
  time within which effect as urease inhibitor was overcome: ≤ 24 h
[3]; acetohydroxamic acid 1.9 mg/ml
  bacteriostatic effect: slight bacteriostatic effect
[3]; acetohydroxamic acid 1.9 mg/ml, within eight to eighteen hours
  number of bacteria: ~10^8 per milliliter
[4]; acetohydroxamic acid treated animals
  urine pH (group): remained in the normal range; also recorded: in the physiological range
[4]; autopsy
  gross evidence of pyelonephritis or renal stone formation (group): none had gross evidence of pyelonephritis or renal stone formation
  kidney histology (group): nearly all had normal kidneys histologically
[4]; individual animal
  Autopsy Gross Kidney: Normal
  Autopsy Urine bacteria/ml: > 10^5 bacteria/ml
  survival of animal: Expired
[4]; [14]
  Urine pH: 7.4 and 6.6 and 6.7 and 7.0 and 6.3 and 6.5 and 6.4
[4]; [15]
  Autopsy Microscopic Kidney: Pyelonephritis; also recorded: Normal
  Autopsy Stone Composition: Struvite; also recorded: Apatite
  Autopsy Stone wt.: 12 mg and 4 mg and 21 mg and 11 mg and 1 mg and 19 mg and 3 mg and 7 mg
[4]; infected rats
  tissue damage and virulence of the disease: tissue damage and virulence of the disease decreased
[4]; rat, in vivo
  P, difference in mean urine pH between control and treated groups: < 0.01
  P, difference in stone formation between control and treated groups: < 0.01
[4]; seventh day
  Proteus mirabilis in urine at autopsy (group): greater than 10^5 per ml
  bladder stone formation (group): minimal; also recorded: significantly less bladder stone formation than the control rats
[5]; acetohydroxamic acid 1.9 mg/ml
  alkalinization: alkalinization of Proteus was inhibited
  bacteriostatic effect: minor bacteriostatic effect
150 mg offered daily orally, average 100 mg ingested
  concentration of acetohydroxamic acid in urine, mean: 2880 µg/mL
[14]
  Urine Acetohy.: .3 mg/mL and 1.5 mg/mL and 2.5 mg/mL and 1.3 mg/mL and .9 mg/mL and 1.6 mg/mL and .5 mg/mL
[6]
  urease inhibiting effect: appear to possess the greatest urease inhibiting effect
[7]
  pKa: 9.32
[8]; acetohydroxamic acid ≤0.9 mg/ml
  bacteriostatic effect: no bacteriostatic effect
[9]
  anti-bacterial effect with regard to bacteria of the species Proteus: slight anti-bacterial effect

## O=CNO [formohydroxamic acid]
[6]
  urease inhibiting effect: appear to possess the greatest urease inhibiting effect

## CC(C)C(=O)NO [isobutyhydroxamic acid]
[6]
  urease inhibiting effect: appear to possess the greatest urease inhibiting effect

## C1N2CN3CN1CN(C2)C3 [methenamine mandelate]
[10]; urinary infections produced by urease producing bacteria
  effect on overcoming the alkalinization of the urine: no real effect on overcoming the alkalinization of the urine

## C1N2CN3CN1CN(C2)C3 [methenamine, hexamethenamine tetramine]
[11]
  growth of Proteus and alkalinization of urine versus synthetic urine alone: affected growth of Proteus and alkalinization of urine only slightly
[10]; methenamine alone, typical anti-bacterial dosage, alkaline pH
  effectiveness at alkaline pH: not effective at an alkaline pH
[10]; pH of the urine reaches 6.5
  anti-bacterial effect of the methenamine: totally diminished
[1]; lower concentrations of methenamine
  effect on pH: the pH rapidly became alkaline and remained so throughout
[1]; methenamine alone 0.5 mg/ml (FIG. 16)
  bacterial growth: slightly inhibited bacterial growth
[1]; methenamine alone, 0.5 mg/ml
  effect on pH: initial tendency for the pH to neutralize in the presence of methenamine alone was overcome by the end of 18-24 hours
[2]; between pH 5.3 and 6.5
  effect on alkalinization: alkalinization was inhibited in proportion to the initial urine acidity
[2]; initial pH less than 5.3
  effect on alkalinization: only a slight upward drift was observed
[2]; pH greater than 6.5
  effect on alkalinization: did not alter progressive alkalinization
[3]; methenamine 0.9 mg/ml
  anti-bacterial effect, dependence on initial pH: proportional to the initial pH
[5]; methenamine 0.9 mg/ml
  colony count by the end of the second time period and throughout: greater than 10^7 per milliliter
  number of bacteria, first six hours: fell slightly during the first six hours
  pH at the end of each four to eight hour period: exceeded 8.5
[8]; methenamine 0.1 mg/ml, acidic urine, 10^4 - 10^7 per ml
  bacteriostasis: bacteriostasis
[12]; alkaline urine (FIGS. 12 and 13; experiments I, J)
  bacteriostatic effect in alkaline urine versus acidic urine: much less bacteriostatic in alkaline urine
[12]; methenamine 0.05 mg/ml, pH 5.9, 10^4 /ml and 10^5 /ml (Experiments A, B)
  bacteriostatic activity: some bacteriostatic activity; also recorded: mild bacteriostatic effect
[12]; methenamine 0.05 mg/ml, ≥10^6 /ml Proteus (Experiments C through H)
  bacteriostasis: no bacteriostasis
[12]; methenamine 0.05 mg/ml, ≥ 10^6 Proteus/ml (FIGS. 4-7)
  bacteriostatic activity: little or no bacteriostatic activity
[12]; methenamine 0.2 mg/ml (FIGS. 8, 9)
  bacteriostatic effect compared with methenamine 0.1 mg/ml: consistently exerted a greater bacteriostatic effect than did methenamine 0.1 mg/ml
[12]; methenamine 0.2 mg/ml, acidic urine (Experiments E and F)
  bacteriostasis: bacteriostasis
[13]; pH 5.0
  release of formaldehyde: excellent release of formaldehyde
[13]; pH 5.5
  release of formaldehyde: good release of formaldehyde
[13]; pH 6.0
  release of formaldehyde: generally adequate for the treatment of most urinary tract infections
[13]; pH of the urine 6.5
  conversion and release of formaldehyde: insufficient conversion and release of formaldehyde

## CCC(=O)NO [propionohydroxamic acid]
[6]
  urease inhibiting effect: appear to possess the greatest urease inhibiting effect
